Data: ChEMBL document CHEMBL3044754, “Physcion, a natural anthraquinone derivative, enhances the gene expression of leaf-specific thionin of barley against Blumeria graminis” (2010)
Active and inactive are the calls of the source. The calls are words filed in the database; no cut-off is given here.

Assays:
Hordeum vulgare [1] = assay: Induction of resistance to Blumeria graminis f. sp. hordei isolate W14 infection in Hordeum vulgare cv. Edamai 9 (barley) assessed as upregulation of leaf-specific thionin gene using Contig1570_s_at as probe at 10 mg/l after 8 hr by qRT-PCR analysis relative to untreated control; assay type: functional
Hordeum vulgare [2] = assay: Induction of resistance to Blumeria graminis f. sp. hordei isolate W14 infection in Hordeum vulgare cv. Edamai 9 (barley) assessed as upregulation of leaf-specific thionin gene using Contig1567_x_at as probe at 10 mg/l after 8 hr by qRT-PCR analysis relative to untreated control; assay type: functional
Hordeum vulgare [3] = assay: Induction of resistance to Blumeria graminis f. sp. hordei isolate W14 infection in Hordeum vulgare cv. Edamai 9 (barley) assessed as downregulation of Pathogenesis-related protein 4 gene using Contig2550_x_at as probe at 10 mg/l after 8 hr by microarray analysis relative to untreated control; assay type: functional
Hordeum vulgare [4] = assay: (§1) Induction of resistance to Blumeria graminis f. sp. hordei isolate W14 infection in Hordeum vulgare cv. Edamai 9 (barley) assessed as downregulation of Bsi1 protein gene using HD04G07u_s_at as probe at 10 mg/l after 8 hr by microarray analysis relative to untreated control; assay type: functional
Hordeum vulgare [5] = assay: Induction of resistance to Blumeria graminis f. sp. hordei isolate W14 infection in Hordeum vulgare cv. Edamai 9 (barley) assessed as downregulation of Oxalate oxidase gene using Contig3017_at as probe at 10 mg/l after 8 hr by microarray analysis relative to untreated control; assay type: functional
Hordeum vulgare [6] = assay: Induction of resistance to Blumeria graminis f. sp. hordei isolate W14 infection in Hordeum vulgare cv. Edamai 9 (barley) assessed as downregulation of Pathogenesis-related protein gene using Contig4054_s_at as probe at 10 mg/l after 8 hr by microarray analysis relative to untreated control; assay type: functional
Hordeum vulgare [7] = assay: Induction of resistance to Blumeria graminis f. sp. hordei isolate W14 infection in Hordeum vulgare cv. Edamai 9 (barley) assessed as downregulation of Peroxidase gene using HVSMEm0005P05r2_at as probe at 10 mg/l after 8 hr by microarray analysis relative to untreated control; assay type: functional
Hordeum vulgare [8] = assay: Induction of resistance to Blumeria graminis f. sp. hordei isolate W14 infection in Hordeum vulgare cv. Edamai 9 (barley) assessed as upregulation of Phytoene synthase E1 gene using Contig13305_at as probe at 10 mg/l after 8 hr by microarray analysis relative to untreated control; assay type: functional
Hordeum vulgare [9] = assay: as §1, with “upregulation” for “downregulation”, “Xyloglucan endotransglycosylase-like” for “Bsi1”, “Contig2669_at” for “HD04G07u_s_at”; assay type: functional
Hordeum vulgare [10] = assay: Induction of resistance to Blumeria graminis f. sp. hordei isolate W14 infection in Hordeum vulgare cv. Edamai 9 (barley) assessed as upregulation of stress-induced gene using Contig3427_at as probe at 10 mg/l after 8 hr by microarray analysis relative to untreated control; assay type: functional
Hordeum vulgare [11] = assay: Induction of resistance to Blumeria graminis f. sp. hordei isolate W14 infection in Hordeum vulgare cv. Edamai 9 (barley) assessed as upregulation of stress-induced gene using Contig3426_at as probe at 10 mg/l after 8 hr by microarray analysis relative to untreated control; assay type: functional
Hordeum vulgare [12] = assay: Induction of resistance to Blumeria graminis f. sp. hordei isolate W14 infection in Hordeum vulgare cv. Edamai 9 (barley) assessed as upregulation of leaf-specific thionin gene using Contig1582_x_at as probe at 10 mg/l after 8 hr by microarray analysis relative to untreated control; assay type: functional
Hordeum vulgare [13] = assay: Induction of resistance to Blumeria graminis f. sp. hordei isolate W14 infection in Hordeum vulgare cv. Edamai 9 (barley) assessed as upregulation of leaf-specific thionin gene using Contig1570_s_at as probe at 10 mg/l after 8 hr by microarray analysis relative to untreated control; assay type: functional
Hordeum vulgare [14] = assay: Induction of resistance to Blumeria graminis f. sp. hordei isolate W14 infection in Hordeum vulgare cv. Edamai 9 (barley) assessed as upregulation of leaf-specific thionin gene using Contig1580_x_at as probe at 10 mg/l after 8 hr by microarray analysis relative to untreated control; assay type: functional
Hordeum vulgare [15] = assay: Induction of resistance to Blumeria graminis f. sp. hordei isolate W14 infection in Hordeum vulgare cv. Edamai 9 (barley) assessed as upregulation of leaf-specific thionin gene using Contig1567_x_at as probe at 10 mg/l after 8 hr by microarray analysis relative to untreated control; assay type: functional
Hordeum vulgare [16] = assay: Induction of systemic resistance to Blumeria graminis f. sp. hordei isolate W14 infection in Hordeum vulgare cv. Edamai 9 (barley) assessed as decrease in colonies on leaf at 10 mg/l up to 216 hr relative to untreated-control; assay type: functional, organism-based
Hordeum vulgare [17] = assay: Induction of localised resistance to Blumeria graminis f. sp. hordei isolate W14 infection in Hordeum vulgare cv. Edamai 9 (barley) assessed as decrease in colonies on leaf at 10 mg/l up to 216 hr relative to untreated-control; assay type: functional, organism-based
Blumeria hordei [18] = assay: Antifungal activity against Blumeria graminis f. sp. hordei isolate W14 infected barley cv. Edamai 9 assessed as disease index at 10 mg/l after 15 days (reference value: 76.5%); assay type: functional
Blumeria hordei [19] = assay: Antifungal activity against Blumeria graminis f. sp. hordei isolate W14 infected barley cv. Edamai 9 assessed as conidial germination at 10 mg/l after 15 days (reference value: 92.4%); assay type: functional
Hordeum vulgare [20] = assay: Induction of resistance to Blumeria graminis f. sp. hordei isolate W14 infection in Hordeum vulgare cv. Edamai 9 (barley) assessed as upregulation of leaf-specific thionin gene using Contig1576_at as probe at 10 mg/l after 8 hr by microarray analysis relative to untreated control; assay type: functional
Blumeria hordei [21] = assay: Antifungal activity against Blumeria graminis f. sp. hordei isolate W14 assessed as conidial germination at 10 mg/l after 48 hr (reference value: 47.3%); assay type: functional

Structure (SMILES): COc1cc(O)c2c(c1)C(=O)c1cc(C)cc(O)c1C2=O [PHYSCION]
- fold change (FC) (Hordeum vulgare [1]): 5.61
- fold change (FC) (Hordeum vulgare [2]): 4.77
- fold change (FC) (Hordeum vulgare [3]): -2.34
- fold change (FC) (Hordeum vulgare [4]): -2.77
- fold change (FC) (Hordeum vulgare [5]): -2.87
- fold change (FC) (Hordeum vulgare [6]): -2.94
- fold change (FC) (Hordeum vulgare [7]): -2.96
- fold change (FC) (Hordeum vulgare [8]): 2.09
- fold change (FC) (Hordeum vulgare [9]): 2.44
- fold change (FC) (Hordeum vulgare [10]): 2.41
- fold change (FC) (Hordeum vulgare [11]): 3.04
- fold change (FC) (Hordeum vulgare [12]): 4.26
- fold change (FC) (Hordeum vulgare [13]): 4.3
- fold change (FC) (Hordeum vulgare [14]): 4.74
- fold change (FC) (Hordeum vulgare [15]): 19.91
- Activity (Hordeum vulgare [16]): inactive
- Activity (Hordeum vulgare [17]): Active
- PDI (Blumeria hordei [18]): 4.4%
- Activity (Blumeria hordei [19]): 4.5%
- fold change (FC) (Hordeum vulgare [20]): 9.34
- Activity (Blumeria hordei [21]): 56.6%
